Source: US20100268174A1, “COMBINATION OF ALCOHOL LOCK AND GENTIAN VIOLET CATHETER” (priority 2007, published 2010)

Experiments:
[1] = Temperature effect (196-219 °C) on degradation of gentian violet compounded in Carbothane resin (HPLC); assay type: physicochemical; conditions: compounded Carbothane resin with 0.5% GV
Method: Gentian violet contents from compounded resin and tube sample were analyzed via HPLC method. HPLC analysis on GV loaded resin or compounded pellets was performed by weighing 0.1-0.3 g, which is roughly equivalent to 10-20 pellets (depending on the weight of the raw material used) of each formulation (n=3) and digesting in THF (5 mL or 7.5 mL) in 50 mL centrifuge tubes. Samples were allowed to sit for 45 minutes, and then vortexed until all of the polymer dissolved. An equal amount of deionized (DI) water was then added (5 or 7.5 mL), and the samples were again vortexed for 5 minutes, and then centrifuged for 10 minutes. A portion of each sample was then added to an HPLC vial and capped prior to HPLC analysis. HPLC analysis was performed on an Agilent 1200 Series LC using an Agilent Eclipse XDB-CN 5μ 4.6×150 mm column with the corresponding guard column. A gradient program was run using two solvent reservoirs: 5 g of gentian violet (Sigma-Aldrich, St. […] Louis, Mo.). 1000 g of Carbothane®-3585A-B20 (Noveon, Cleveland, Ohio) resin was added in to the gentian violet/ethanol solution. The ethanol solvent was evaporated off in a chemical fume hood overnight at ambient conditions. The gentian violet coated pellets were then dried at 50° C. and 30 inches Hg for 24 hrs prior to compounding. […] The melt temperatures from each run are recorded in Table 6. […]

[2] = assay type: physicochemical
Method: One of the surprising findings about the temperature effects is that certain classes of polyurethanes are processable below the degradation temperature and other classes are not.
Compounding Conditions for Stable Gentian Violet:
Barrel Temperatures: • Zone 1-5=170° C. • Zone 6=175° C.,
Compounding Temperature for Degraded Gentian Violet:
Compounding was performed with Sigma Aldrich ACS grade gentian violet, lot 016K3691. HPLC analysis was performed by cutting and measuring 1 cm segments of each formulation (n=3) using the method described in Examples II and III.
The chromatograms show the stable gentian violet followed by the degraded gentian violet, at 588 nm, 253 nm, and 280 nm. The degradation peaks from the 217° C. sample are evident as the new peaks at 253 and 280 nm wavelengths. The chromatogram of the low processing temperature was identical to that of the Gentian Violet raw material.

[3] = Temperature effect (high temperatures) on degradation of gentian violet compounded in Carbothane resin (HPLC); assay type: physicochemical; conditions: drop in extractable GV content
Method: Gentian violet contents from compounded resin and tube sample were analyzed via HPLC method. HPLC analysis on GV loaded resin or compounded pellets was performed by weighing 0.1-0.3 g, which is roughly equivalent to 10-20 pellets (depending on the weight of the raw material used) of each formulation (n=3) and digesting in THF (5 mL or 7.5 mL) in 50 mL centrifuge tubes. Samples were allowed to sit for 45 minutes, and then vortexed until all of the polymer dissolved. An equal amount of deionized (DI) water was then added (5 or 7.5 mL), and the samples were again vortexed for 5 minutes, and then centrifuged for 10 minutes. A portion of each sample was then added to an HPLC vial and capped prior to HPLC analysis. HPLC analysis was performed on an Agilent 1200 Series LC using an Agilent Eclipse XDB-CN 5μ 4.6×150 mm column with the corresponding guard column. A gradient program was run using two solvent reservoirs: The sample preparation for loading GV on resin pellets is similar to EXAMPLE V. Gentian violet was purchased from (Sigma-Aldrich, St. Louis, Mo.) and Carbothane®-3585A-B20 (Noveon, Cleveland, Ohio) was used. The heating profile was varied for each run.

most microorganisms = conditions: Sissons et al. 1996; cited from earlier work
[4] = system: all organisms of interest
Method: Dilutions were prepared in Cationic Adjusted Mueller Hinton Broth (CAMHB). All tests were performed in microtiter plates with a total test volume of 100 μL, including diluted antimicrobial agent and inoculum. Concentrations of antimicrobial agents were prepared at 2× concentration, and 50 μL was added to each well of a microtiter plate, to which 50 μL of inoculum of the test organism was added to give the target test concentration.
Cells were subsequently centrifuged, and resuspended twice in phosphate buffered saline. The population of this bacterial suspension was determined by reading optical density at 670 nm. […] Initial concentrations were verified using the Miles and Misra drop count method. […] Incubation was at 37° C. for 16 to 20 hours.
To determine MBC values, 50 μl was removed from each well showing inhibition of growth (MIC and greater). Solutions from these inhibitory concentrations of antimicrobial agent were diluted in CAMHB to concentrations where they would no longer inhibit the growth of the test organism. Recovery counts were obtained by plating aliquots of the diluted material onto TSA plate containing 5% sheep's blood, and incubating 24 hours at 37° C.

processing temperature up to which GV content is essentially unchanged [1] | onset of degradation (processing temperature) ([1]; worse at 219° C.) | processing temperature at which degradation starts [2] | processing temperature at which extruded gentian violet was found to degrade [2] | processing temperature that does not degrade gentian violet [2] | temperature above which there is significant degradation of the GV [3] | SMILES | concentration generally considered bactericidal (most microorganisms) | concentration that inhibits the growth of most microorganisms (most microorganisms) | concentration at which the solution will not inhibit microbial growth [4] | subinhibitory concentration ([4]; for all organisms of interest) | ethanol lock concentration cidal towards most commonly encountered infectious pathogens ([4]; suggested by the Table 1 results)
≤ 206 °C | 209 °C | about 209 °C | 217 °C | under 207 °C | above 220 °C | CN(C)c1ccc(C(=C2C=CC(=[N+](C)C)C=C2)c2ccc(N(C)C)cc2)cc1 [gentian violet] | – | – | – | – | –
– | – | – | – | – | – | CCO [ethanol] | ≥ 40% | 10% | below 7% | 5% | above 25%
